The target of the test is T1, human PTH1 receptor (Homo sapiens, UniProt Q03431).
T1 sequence (Q03431 27-593): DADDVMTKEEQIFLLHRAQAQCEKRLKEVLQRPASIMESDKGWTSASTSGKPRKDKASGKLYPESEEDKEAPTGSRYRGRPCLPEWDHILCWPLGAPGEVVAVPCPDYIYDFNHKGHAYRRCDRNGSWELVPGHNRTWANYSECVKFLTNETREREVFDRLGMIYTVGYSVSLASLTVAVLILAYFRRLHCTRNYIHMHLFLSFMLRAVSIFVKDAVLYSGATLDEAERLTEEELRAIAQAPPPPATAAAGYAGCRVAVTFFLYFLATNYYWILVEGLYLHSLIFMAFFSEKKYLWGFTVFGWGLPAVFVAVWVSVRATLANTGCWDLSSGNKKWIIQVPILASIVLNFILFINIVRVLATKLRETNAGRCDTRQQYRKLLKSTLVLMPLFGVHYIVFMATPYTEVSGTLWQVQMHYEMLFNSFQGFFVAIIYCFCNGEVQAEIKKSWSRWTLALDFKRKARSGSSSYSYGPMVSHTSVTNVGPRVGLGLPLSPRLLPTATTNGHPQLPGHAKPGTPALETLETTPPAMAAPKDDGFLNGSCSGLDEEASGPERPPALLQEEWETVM
The test can be described thus: In vitro cAMP signal activity in HKRK-B7 cells (LLC-PK1 cells overexpressing the human PTH1 receptor). It is filed as cell-based. The conditions noted are these: HKRK-B7 cells; compound at 1×10^−3 M; cAMP produced as percentage of that produced by hPTH(1-34) at 100 nM.
Regarding `Cc1cc(C(=O)N(C)C)ccc1CCS(=O)(=O)N1CCC2(CC1)N=C(c1ccc(Cl)cc1Cl)NC2=O` [Compound 73, 4-{2-[2-(2,4-Dichloro-phenyl)-4-oxo-1,3,8-triaza-spiro[4.5]dec-1-ene-8-sulfonyl]-ethyl}-3,N,N-trimethyl-benzamide], the “cAMP production activity (%)” value is listed as 66%.
As for `[2H]C([2H])([2H])C([2H])([2H])C([2H])([2H])C([2H])([2H])Oc1ccc(C2=NC3(CCN(S(=O)(=O)/C=C/c4c(C)cc(C(=O)N5CCC(O)(CF)CC5)cc4C)CC3)C(=O)N2)cc1C(F)(F)F` [Compound 1261, 2-(4-[1,1,2,2,3,3,4,4,4-^2H9]butoxy-3-trifluoromethyl-phenyl)-8-{(E)-2-[4-(4-fluoromethyl-4-hydroxy-piperidine-1-carbonyl)-2,6-dimethyl-phenyl]-ethenesulfonyl}-1,3,8-triaza-spiro[4.5]dec-1-en-4-one], the figure is 99%; as for `Cc1cc(C(=O)N(C)C)ccc1CCS(=O)(=O)N1CCC2(CC1)N=C(C1(C(F)(F)F)CCC1)NC2=O` [Compound 137, 3,N,N-trimethyl-4-{2-[4-oxo-2-(1-trifluoromethyl-cyclobutyl)-1,3,8-triaza-spiro[4.5]dec-1-ene-8-sulfonyl]-ethyl}-benzamide], 50%.
With `Cc1cc(N(C)C(N)=O)cc(C)c1CCS(=O)(=O)N1CCC2(CC1)N=C(C1CCC(C)CC1)NC2=O` (stereo not shown) [Compound 470, 1-(3,5-Dimethyl-4-{2-[2-(4-methyl-cyclohexyl)-4-oxo-1,3,8-triaza-spiro[4.5]dec-1-ene-8-sulfonyl]-ethyl}-phenyl)-1-methyl-urea] the figure was 90%.
Consider `CN(C)C(=O)CNc1ccc(CCS(=O)(=O)N2CCC3(CC2)N=C(C2CCCCC2)NC3=O)c(C(F)(F)F)c1` [Compound 270, 2-{4-[2-(2-cyclohexyl-4-oxo-1,3,8-triaza-spiro[4.5]dec-1-ene-8-sulfonyl)-ethyl]-3-trifluoromethyl-phenylamino}-N,N-dimethyl-acetamide], for which the “cAMP production activity (%)” value is listed as 55%.
As for `COC(=O)Nc1ccc(C)c(/C=C/S(=O)(=O)N2CCC3(CC2)N=C(C2CCCCC2)NC3=O)c1` [Compound 197, {3-[(E)-2-(2-cyclohexyl-4-oxo-1,3,8-triaza-spiro[4.5]dec-1-ene-8-sulfonyl)-vinyl]-4-methyl-phenyl}-carbamic acid methyl ester], the figure is 41%; as for `CC(=O)NC(C)c1ccc(/C=C/S(=O)(=O)N2CCC3(CC2)N=C(C2CCCCC2)NC3=O)cc1` (stereo not shown) [Compound 482, N-(1-{4-[(E)-2-(2-cyclohexyl-4-oxo-1,3,8-triaza-spiro[4.5]dec-1-ene-8-sulfonyl)-vinyl]-phenyl}-ethyl)-acetamide], 38%.
In the case of `Cc1cc(C(=O)N(C)C)ccc1CCS(=O)(=O)N1CCC2(CC1)N=C(C1CCCC1)NC2=O` [Compound 77, 4-[2-(2-cyclopentyl-4-oxo-1,3,8-triaza-spiro[4.5]dec-1-ene-8-sulfonyl)-ethyl]-3,N,N-trimethyl-benzamide], the “cAMP production activity (%)” value came out at 69%.
In the case of `CCCCCCCC#CC1=NC2(CCN([S@TB17](=O)(=O)CCc3c(C)cc(N(C)C(N)=O)cc3C)CC2)C(=O)N1` [Compound 1083, 1-{3,5-dimethyl-4-[2-(2-non-1-ynyl-4-oxo-1,3,8-triaza-spiro[4.5]dec-1-ene-8-sulfonyl)-ethyl]-phenyl}-1-methyl-urea], the “cAMP production activity (%)” value was 113%.
Turning to `CN(C)C(=O)n1ccc2c(/C=C/S(=O)(=O)N3CCC4(CC3)N=C(C3CCCCC3)NC4=O)cccc21` [Compound 189, 4-[(E)-2-(2-cyclohexyl-4-oxo-1,3,8-triaza-spiro[4.5]dec-1-ene-8-sulfonyl)-vinyl]-indole-1-carboxylic acid dimethylamide], the “cAMP production activity (%)” value is 54%.
Take `Cc1cc(C(=O)N2CCC(F)C2)ccc1CCS(=O)(=O)N1CCC2(CC1)N=C(c1cccc(C(F)(F)F)c1)NC2=O` (stereo not shown) [Compound 378, 8-{2-[4-(3-fluoro-pyrrolidine-1-carbonyl)-2-methyl-phenyl]-ethanesulfonyl}-2-(3-trifluoromethyl-phenyl)-1,3,8-triaza-spiro[4.5]dec-1-en-4-one]: the “cAMP production activity (%)” value was 60%.
Turning to `Cc1cc(C(=O)N(C)C)ccc1CCS(=O)(=O)N1CCC2(CC1)N=C(c1cccc(COC(C)C)c1)NC2=O` [Compound 130, 4-{2-[2-(3-isopropoxymethyl-phenyl)-4-oxo-1,3,8-triaza-spiro[4.5]dec-1-ene-8-sulfonyl]-ethyl}-3,N,N-trimethyl-benzamide], the “cAMP production activity (%)” value is 65%.
On to `Cc1cc(C(=O)N(C)C)ccc1CCS(=O)(=O)N1CCC2(CC1)N=C(COc1ccc(F)c(F)c1F)NC2=O` [Compound 176, 3,N,N-trimethyl-4-{2-[4-oxo-2-(2,3,4-trifluoro-phenoxymethyl)-1,3,8-triaza-spiro[4.5]dec-1-ene-8-sulfonyl]-ethyl}-benzamide], for which the “cAMP production activity (%)” value turned out to be 74%.
With `CCCCCCCC#CC1=NC2(CCN(S(=O)(=O)/C=C/c3c(C)cc(N(C)C(N)=O)cc3C)CC2)C(=O)N1` [Compound 1027, 1-{3,5-dimethyl-4-[(E)-2-(2-non-1-ynyl-4-oxo-1,3,8-triaza-spiro[4.5]dec-1-ene-8-sulfonyl)-vinyl]-phenyl}-1-methyl-urea] the figure was 82%.
As for `CN(C)CCNC(=O)Cc1ccc(CCS(=O)(=O)N2CCC3(CC2)N=C(C2CCCCC2)NC3=O)cc1` [Compound 282, 2-{4-[2-(2-cyclohexyl-4-oxo-1,3,8-triaza-spiro[4.5]dec-1-ene-8-sulfonyl)-ethyl]-phenyl}-N-(2-dimethylamino-ethyl)-acetamide], the figure is 29%.
For the molecule `CCCCC1CCC(C2=NC3(CCN(S(=O)(=O)CCc4ccc(N5C(=O)CNC5=O)cc4C)CC3)C(=O)N2)CC1` (stereo not shown) [Compound 880, 3-(4-{2-[2-(4-Butyl-cyclohexyl)-4-oxo-1,3,8-triaza-spiro[4.5]dec-1-ene-8-sulfonyl]-ethyl}-3-methyl-phenyl)-imidazolidine-2,4-dione], the “cAMP production activity (%)” value is 68%.
For the molecule `Cc1cc(C(=O)N2CCC(OC[C@H](O)CO)CC2)cc(C)c1/C=C/S(=O)(=O)N1CCC2(CC1)N=C(CCCCCCCCC(F)(F)F)NC2=O` [Compound 1010, 8-((E)-2-{4-[4-((R)-2,3-Dihydroxy-propoxy)-piperidine-1-carbonyl]-2,6-dimethyl-phenyl}-ethenesulfonyl)-2-(9,9,9-trifluoro-nonyl)-1,3,8-triaza-spiro[4.5]dec-1-en-4-one], the “cAMP production activity (%)” value was determined as 96%.
With `Cc1cc(Nc2nccs2)cc(C)c1/C=C/S(=O)(=O)N1CCC2(CC1)N=C(C1CCCCC1)NC2=O` [Compound 573, 2-cyclohexyl-8-{(E)-2-[2,6-dimethyl-4-(thiazol-2-ylamino)-phenyl]-ethenesulfonyl}-1,3,8-triaza-spiro[4.5]dec-1-en-4-one] the figure was 35%; with `CC1CCC(C2=NC3(CCN(S(=O)(=O)/C=C/c4cccc(C#N)c4)CC3)C(=O)N2)CC1` (stereo not shown) [Compound 209, 3-{(E)-2-[2-(4-Methyl-cyclohexyl)-4-oxo-1,3,8-triaza-spiro[4.5]dec-1-ene-8-sulfonyl]-vinyl}-benzonitrile], 24%.
